According to patent US8202996B2, “Crystalline forms of N-(tert-butoxycarbonyl)-3-methyl-L-valyl-(4R)-4-((7-chloro-4-methoxy-1-isoquinolinyl)oxy)-N- ((1R,2S)-1-((cyclopropylsulfonyl)carbamoyl)-2-vinylcyclopropyl)-L-prolinamide” (Bristol-Myers Squibb Company, priority 2007, dated 2012):

Experiments:
[1] = Crystal form in aqueous solution / suspension in water; assay type: physicochemical; conditions: aqueous solutions / suspended in water
[2] = Interconversion of Forms H-1 and T1F-1/2 as a function of relative humidity; assay type: physicochemical; conditions: solid state, FIG. 1

SMILES	form stability in water [1]	relative humidity at which Compound (I) exists as a mixture of H-1 and T1F-1/2 [2]	relative humidity at which Compound (I) exists as this crystalline form [2] [% relative humidity]
C=C[C@@H]1C[C@]1(NC(=O)[C@@H]1C[C@@H](Oc2ncc(OC)c3ccc(Cl)cc23)CN1C(=O)[C@@H](NC(=O)OC(C)(C)C)C(C)(C)C)C(=O)NS(=O)(=O)C1CC1 [Compound (I), N-(tert-butoxycarbonyl)-3-methyl-L-valyl-(4R)-4-((7-chloro-4-methoxy-1-isoquinolinyl)oxy)-N-((1R,2S)-1-((cyclopropylsulfonyl)carbamoyl)-2-vinylcyclopropyl)-L-prolinamide]	exists as H-1	15-45 % relative humidity	
C=C[C@@H]1C[C@]1(NC(=O)[C@@H]1C[C@@H](Oc2ncc(OC)c3ccc(Cl)cc23)CN1C(=O)[C@@H](NC(=O)OC(C)(C)C)C(C)(C)C)C(=O)NS(=O)(=O)C1CC1 [Form H-1, N-(tert-butoxycarbonyl)-3-methyl-L-valyl-(4R)-4-((7-chloro-4-methoxy-1-isoquinolinyl)oxy)-N-((1R,2S)-1-((cyclopropylsulfonyl)carbamoyl)-2-vinylcyclopropyl)-L-prolinamide]			> 45
C=C[C@@H]1C[C@]1(NC(=O)[C@@H]1C[C@@H](Oc2ncc(OC)c3ccc(Cl)cc23)CN1C(=O)[C@@H](NC(=O)OC(C)(C)C)C(C)(C)C)C(=O)NS(=O)(=O)C1CC1 [Form T1F-1/2, N-(tert-butoxycarbonyl)-3-methyl-L-valyl-(4R)-4-((7-chloro-4-methoxy-1-isoquinolinyl)oxy)-N-((1R,2S)-1-((cyclopropylsulfonyl)carbamoyl)-2-vinylcyclopropyl)-L-prolinamide]	rapidly converts to H-1		< 15
